Structures can show the parent of a compound that is named as a salt.
Legend:
[1] = test system: spontaneously hypertensive rats (SHR); assay: Hypotensive activity in SHR (systolic blood pressure, tail plethysmographic technique); type: in vivo, rat; details: 50 mg/kg orally
Experimental: Hypotensive activity in SHR:
A test compound (dose: 50 mg/kg) suspended in an aqueous carboxymethylcellulose solution was administered orally to spontaneously hypertensive rats (SHR) fasted overnight. The systolic blood pressure of the rats was measured by the tail plethysmographic technique (The Journal of Laboratory and Clinical Medicine 78(1971), page 957). The hypotensive activity of the test compound was estimated from the decreased level of blood pressure.

[2] = test system: mice; assay: Oral toxicity in mice; type: in vivo, mouse; details: 2 g/kg orally
Experimental: Furthermore, when a test compound was administered orally to spontaneously hypertensive rats, 3(S)-2-[N-ethyl-N-(2-n-butoxycarbonylethyl)carbamoyl]-1,2,3,4-tetrahydroisoquinoline-3-carboxylic acid 1/2 calcium salt at a dose of 50 mg/kg decreased the blood pressure by 24 mm Hg. In addition, the toxicity of the compound (I) is considerably low. For example, when 3(S)-2-[N-ethyl-N-(2-n-butoxycarbonylethyl)carbamoyl]-1,2,3,4-tetrahydroisoquinoline-3-carboxylic acid 1/2 calcium salt was administered orally to mice at a dose of 2 g/kg, no mouse died within 7 days after said administration.

CCCCOC(=O)CCN(CC)C(=O)N1Cc2ccccc2C[C@H]1C(=O)O [3(S)-2-[N-ethyl-N-(2-n-butoxycarbonylethyl)carbamoyl]-1,2,3,4-tetrahydroisoquinoline-3-carboxylic acid 1/2 calcium salt]
Decrease in blood pressure (-Δ mm Hg) ([1]; SHR fasted overnight, systolic): 24 mm Hg
Duration of action ([1]; hypotensive action, SHR): > 6 h
mortality within 7 days after administration [2]: no mouse died
